Experimental data reported in patent publication US7026339B2, “Inhibitors of HCV NS5B polymerase” (priority 2003, dated 2006).

Tested on: HuH-7 replicon cells 5–15 and 9–13 (HCV replication)
Experiment: Inhibition of viral replication in HuH-7 replicon cells (HCV RNA / GAPDH RNA by multiplex RT-PCR)
Type: cell-based
Conditions: Hepatitis C virus, 72 h; inhibiting 50% of replication; HuH-7 replicon cells, 3 days; read-out: IC50
Outline: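 HCV and GAPDH RNA were measured by multiplex TaqMan RT-PCR (HCV 5′ untranslated region) after 3-day compound treatment at 37 °C, final 100 μM–1 μM in 1% DMSO. Cells were plated 24 h beforehand at 7×10^3/well. Read-out: HCV-to-GAPDH ratio expressed as percent control versus untreated cells.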

| Compound | IC50 |
| --- | --- |
| COc1cccc(CC(=O)N/N=C/c2ccccc2OS(=O)(=O)c2ccc(OCc3cnc(Cl)s3)cc2)c1 [Compound 225, 2-((E)-{2-[2-(3-methoxyphenyl)acetyl]hydrazono}methyl)-phenyl 4-[(2-chloro-1,3-thiazol-5-yl)methoxy]benzenesulfonate] | > 50 µM |
| COc1cccc(CC(=O)N/N=C/c2ccccc2OS(=O)(=O)c2ccc(-c3cc(C(F)(F)F)n(C)n3)s2)c1 [Compound 226, 2-((E)-{2-[2-(3-methoxyphenyl)acetyl]hydrazono}methyl)-phenyl 5-[1-methyl-5-(trifluoromethyl)-1H-pyrazol-3-yl]thiophene-2-sulfonate] | < 5 µM |
| O=C(Cc1cccc(Cl)c1)N/N=C/c1ccncc1OS(=O)(=O)c1ccc(C(F)(F)F)cc1 [Compound 227, 4-((E)-{2-[2-(3-chlorophenyl)acetyl]hydrazono}methyl)-pyridin-3-yl 4-(trifluoromethyl)benzenesulfonate] | < 5 µM |
| Cc1ccc(S(=O)(=O)Oc2cnccc2/C=N/NC(=O)Cc2cccc(Cl)c2)cc1 [Compound 228, 4-((E)-{2-[2-(3-chlorophenyl)acetyl]hydrazono}methyl)-pyridin-3-yl 4-methylbenzenesulfonate] | < 5 µM |
| COc1cccc(CC(=O)N/N=C/c2ccncc2OS(=O)(=O)c2ccc(C)cc2)c1 [Compound 229, 4-((E)-{2-[2-(3-methoxyphenyl)acetyl]hydrazono}methyl)-pyridin-3-yl 4-methylbenzenesulfonate] | < 5 µM |
| COc1cccc(CC(=O)N/N=C/c2ccncc2OS(=O)(=O)c2ccc(C(F)(F)F)cc2)c1 [Compound 230, 4-((E)-{2-[2-(3-methoxyphenyl)acetyl]hydrazono}methyl)-pyridin-3-yl 4-(trifluoromethyl)benzenesulfonate] | < 5 µM |
| Cc1ccc(S(=O)(=O)Cc2ccccc2/C=N/NC(=O)Cc2cccc(Cl)c2)cc1 [Compound 231, 2-(3-chlorophenyl)-N′-[(1E)-(2-{[(4-methylphenyl)sulfonyl]methyl}phenyl)-methylene]acetohydrazide] | < 5 µM |
| Cc1ccc(S(=O)(=O)Cc2ccccc2/C=N/NC(=O)Cc2ccccc2)cc1 [Compound 232, N′-[(1E)-(2-{[(4-methylphenyl)sulfonyl]methyl}phenyl)-methylene]-2-phenylacetohydrazide] | < 5 µM |
| COc1cccc(CC(=O)N/N=C/c2ccccc2CS(=O)(=O)c2ccc(C)cc2)c1 [Compound 233, 2-(3-methoxyphenyl)-N′-[(1 E)-(2-{[(4-methylphenyl)sulfonyl]methyl}phenyl)-methylene]acetohydrazide] | < 5 µM |
| Cc1ccc(Oc2ccccc2/C=N/NC(=O)Cc2ccccc2)cc1 [Compound 234, N′-{(1E)-[2-(4-methylphenoxy)phenyl]methylene}-2-phenylacetohydrazide] | > 50 µM |
| Cc1ccc(COc2ccccc2/C=N/NC(=O)Cc2ccccc2)cc1 [Compound 235, N′-((1E)-{2-[(4-methylbenzyl)oxy]phenyl}methylene)-2-phenylacetohydrazide] | > 50 µM |
| COc1cccc(CC(=O)N/N=C/c2ccccc2OCc2ccc(C)cc2)c1 [Compound 236, 2-(3-methoxyphenyl)-N′-((1E)-{2-[(4-methylbenzyl)oxy]phenyl}methylene)-acetohydrazide] | > 50 µM |
| CC(C)(C)c1ccc(COc2ccccc2/C=N/NC(=O)Cc2cccnc2)cc1 [Compound 237, N′-((1E)-{2-[(4-tert-butylbenzyl)oxy]phenyl}methylene)-2-pyridin-3-ylacetohydrazide] | > 50 µM |
| O=C(Cc1ccccc1)N/N=C/c1ccccc1OCc1cccc2ccccc12 [Compound 238, N′-{(1E)-[2-(1-naphthylmethoxy)phenyl]methylene}-2-phenylacetohydrazide] | 5 to 50 µM |
| COc1cccc(CC(=O)N/N=C/c2ccccc2S(=O)(=O)c2ccc(C)cc2)c1 [Compound 239, 2-(3-methoxyphenyl)-N′-((1E)-{2-[(4-methylphenyl)sulfonyl]phenyl}methylene)-acetohydrazide] | 5 to 50 µM |
